Results taken from ChEMBL document CHEMBL3991601, “The target landscape of clinical kinase drugs” (Science, 2017).
The source made the active and inactive calls.

Tests used:
[1] = target: T1, Glycogen phosphorylase, liver form (Homo sapiens, UniProt P06737); format: subcellular, K-562, COLO 205, SK-N-BE(2) and MV-4-11, Cell lysate; conditions: read-out: Kd apparent
T1 sequence (P06737 whole entry): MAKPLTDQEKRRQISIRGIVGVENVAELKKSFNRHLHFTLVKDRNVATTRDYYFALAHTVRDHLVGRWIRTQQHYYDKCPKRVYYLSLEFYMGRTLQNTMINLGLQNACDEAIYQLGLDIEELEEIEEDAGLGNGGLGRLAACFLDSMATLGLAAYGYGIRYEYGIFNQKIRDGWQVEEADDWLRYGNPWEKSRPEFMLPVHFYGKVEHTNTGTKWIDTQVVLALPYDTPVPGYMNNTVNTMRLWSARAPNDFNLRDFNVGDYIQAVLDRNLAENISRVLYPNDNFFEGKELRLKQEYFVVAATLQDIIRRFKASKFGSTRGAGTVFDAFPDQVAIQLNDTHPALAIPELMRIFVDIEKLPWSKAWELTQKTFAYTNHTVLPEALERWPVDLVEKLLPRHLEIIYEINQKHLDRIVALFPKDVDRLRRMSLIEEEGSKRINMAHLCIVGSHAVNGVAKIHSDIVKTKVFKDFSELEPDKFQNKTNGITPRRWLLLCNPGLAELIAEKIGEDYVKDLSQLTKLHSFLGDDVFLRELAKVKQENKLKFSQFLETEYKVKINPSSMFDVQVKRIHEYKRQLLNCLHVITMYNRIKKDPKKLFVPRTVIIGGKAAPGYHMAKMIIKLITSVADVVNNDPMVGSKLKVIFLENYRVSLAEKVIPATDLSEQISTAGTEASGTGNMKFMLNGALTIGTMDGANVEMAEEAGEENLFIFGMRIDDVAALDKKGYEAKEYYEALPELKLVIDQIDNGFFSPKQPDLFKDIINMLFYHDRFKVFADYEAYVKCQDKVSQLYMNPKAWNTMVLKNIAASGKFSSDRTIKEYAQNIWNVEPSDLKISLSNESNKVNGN

[2] = target: Cyclin-dependent kinase 5 (Homo sapiens, UniProt Q00535)
Cyclin-dependent kinase 5, sequence (Q00535 whole entry): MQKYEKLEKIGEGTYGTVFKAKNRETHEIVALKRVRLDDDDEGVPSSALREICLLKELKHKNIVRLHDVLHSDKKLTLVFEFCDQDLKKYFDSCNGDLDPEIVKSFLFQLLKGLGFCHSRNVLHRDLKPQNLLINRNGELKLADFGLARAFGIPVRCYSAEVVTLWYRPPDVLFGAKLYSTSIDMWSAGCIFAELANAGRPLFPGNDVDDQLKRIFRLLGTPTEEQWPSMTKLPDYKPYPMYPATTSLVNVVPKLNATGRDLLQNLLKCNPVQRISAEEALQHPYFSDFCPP

[3] = target: DnaJ homolog subfamily A member 1 (Homo sapiens, UniProt P31689)
DnaJ homolog subfamily A member 1, sequence (P31689 whole entry): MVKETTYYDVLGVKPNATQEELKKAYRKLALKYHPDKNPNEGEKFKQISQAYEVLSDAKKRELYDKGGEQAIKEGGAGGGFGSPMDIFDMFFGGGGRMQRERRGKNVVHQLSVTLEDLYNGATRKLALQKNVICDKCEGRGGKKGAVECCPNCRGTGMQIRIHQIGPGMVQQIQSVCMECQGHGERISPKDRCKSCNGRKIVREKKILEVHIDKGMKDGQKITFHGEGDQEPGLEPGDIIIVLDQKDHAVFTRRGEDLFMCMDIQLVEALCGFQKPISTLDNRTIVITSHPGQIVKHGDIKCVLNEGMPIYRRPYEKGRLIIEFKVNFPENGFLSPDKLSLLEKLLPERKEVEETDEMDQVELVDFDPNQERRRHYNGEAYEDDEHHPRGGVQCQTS

[4] = target: T2, Cyclin-G-associated kinase (Homo sapiens, UniProt O14976)
T2 sequence (O14976 whole entry): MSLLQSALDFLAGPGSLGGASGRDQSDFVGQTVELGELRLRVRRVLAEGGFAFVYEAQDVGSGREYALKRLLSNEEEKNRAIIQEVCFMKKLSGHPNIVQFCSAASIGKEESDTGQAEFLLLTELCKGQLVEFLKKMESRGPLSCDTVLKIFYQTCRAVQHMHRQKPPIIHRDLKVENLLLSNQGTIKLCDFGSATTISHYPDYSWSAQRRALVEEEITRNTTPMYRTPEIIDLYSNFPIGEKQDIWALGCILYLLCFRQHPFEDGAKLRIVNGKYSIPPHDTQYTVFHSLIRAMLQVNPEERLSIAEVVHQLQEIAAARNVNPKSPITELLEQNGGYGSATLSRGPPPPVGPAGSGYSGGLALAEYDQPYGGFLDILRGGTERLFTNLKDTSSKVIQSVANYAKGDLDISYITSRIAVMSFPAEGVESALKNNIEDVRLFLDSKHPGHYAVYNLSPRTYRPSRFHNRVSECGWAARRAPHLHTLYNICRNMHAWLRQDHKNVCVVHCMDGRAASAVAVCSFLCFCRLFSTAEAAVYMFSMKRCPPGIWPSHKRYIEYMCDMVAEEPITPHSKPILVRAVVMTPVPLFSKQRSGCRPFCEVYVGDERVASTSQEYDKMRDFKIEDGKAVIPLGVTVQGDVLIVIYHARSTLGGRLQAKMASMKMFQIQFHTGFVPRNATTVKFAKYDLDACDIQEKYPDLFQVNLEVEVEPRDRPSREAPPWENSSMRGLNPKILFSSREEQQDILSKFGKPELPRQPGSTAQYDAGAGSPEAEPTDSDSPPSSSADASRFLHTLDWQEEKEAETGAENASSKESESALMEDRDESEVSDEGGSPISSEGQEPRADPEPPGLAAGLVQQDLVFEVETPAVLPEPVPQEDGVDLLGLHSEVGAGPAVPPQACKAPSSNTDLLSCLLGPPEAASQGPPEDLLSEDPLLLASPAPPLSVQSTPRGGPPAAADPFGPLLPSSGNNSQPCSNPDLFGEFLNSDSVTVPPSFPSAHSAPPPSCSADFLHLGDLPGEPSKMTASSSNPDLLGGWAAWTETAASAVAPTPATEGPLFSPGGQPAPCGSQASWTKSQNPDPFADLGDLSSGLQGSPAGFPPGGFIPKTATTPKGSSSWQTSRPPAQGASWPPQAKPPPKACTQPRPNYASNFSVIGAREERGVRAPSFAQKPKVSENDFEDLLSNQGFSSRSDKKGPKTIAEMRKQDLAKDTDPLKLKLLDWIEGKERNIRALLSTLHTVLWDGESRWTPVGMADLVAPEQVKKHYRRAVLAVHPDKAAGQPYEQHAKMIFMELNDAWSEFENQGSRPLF

[5] = target: T3, STE20-related kinase adapter protein alpha (Homo sapiens, UniProt Q7RTN6)
T3 sequence (Q7RTN6 whole entry): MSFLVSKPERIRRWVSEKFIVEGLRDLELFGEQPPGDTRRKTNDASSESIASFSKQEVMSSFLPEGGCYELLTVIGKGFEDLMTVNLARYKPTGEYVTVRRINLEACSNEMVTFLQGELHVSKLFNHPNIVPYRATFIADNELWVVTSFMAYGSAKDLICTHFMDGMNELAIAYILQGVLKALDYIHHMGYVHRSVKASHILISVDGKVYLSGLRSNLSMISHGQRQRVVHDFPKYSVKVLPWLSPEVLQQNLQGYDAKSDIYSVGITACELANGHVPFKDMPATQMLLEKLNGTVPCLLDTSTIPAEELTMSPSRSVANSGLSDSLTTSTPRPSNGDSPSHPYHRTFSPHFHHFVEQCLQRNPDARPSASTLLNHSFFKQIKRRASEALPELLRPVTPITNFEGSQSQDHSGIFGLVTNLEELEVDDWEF
Also: in the data inactive means no Kd found up to 30 µM.

Structure (SMILES)	Kd [1]	Kd [2]	Kd [3]	Kd [4]	Kd [5]
Cc1cc(-c2cc(OC(=O)c3ccccc3)ccc2Cl)cc2nnc(Nc3ccc(OCCN4CCCC4)cc3)nc12 [TG100-801]	> 30 µM (inactive)	> 30 µM (inactive)	> 30 µM (inactive)	0.824 µM (active)	> 30 µM (inactive)
O=C(NOC[C@H](O)CO)c1ccc(F)c(F)c1Nc1ccc(I)cc1F [MIRDAMETINIB]	> 30 µM (inactive)	> 30 µM (inactive)	> 30 µM (inactive)	> 30 µM (inactive)	> 30 µM (inactive)
CC(C)(O)CC(=O)NCCn1ccc2ncnc(Nc3ccc(Oc4cccc(C(F)(F)F)c4)c(Cl)c3)c21 [TAK-285]	> 30 µM (inactive)	> 30 µM (inactive)	> 30 µM (inactive)	> 30 µM (inactive)	> 30 µM (inactive)
Cc1cc(C(=O)Nc2cc(Oc3ccc4nc(NC(=O)C5CC5)cn4n3)ccc2C)n(C)n1 [TAK-593]	> 30 µM (inactive)	> 30 µM (inactive)	> 30 µM (inactive)	> 30 µM (inactive)	> 30 µM (inactive)
NC[C@@](O)(c1ccc(Cl)cc1)c1ccc(-c2cn[nH]c2)cc1 [AT-13148]	> 30 µM (inactive)	> 30 µM (inactive)	> 30 µM (inactive)	> 30 µM (inactive)	> 30 µM (inactive)
Cc1c(NC(=O)OC[C@@H]2COCCN2)cn2ncnc(Nc3ccc4c(cnn4Cc4cccc(F)c4)c3)c12 [AC-480]	> 30 µM (inactive)	> 30 µM (inactive)	> 30 µM (inactive)	> 30 µM (inactive)	> 30 µM (inactive)
C=CCN(/C=C1/C(=O)O[C@H](COC)[C@@]2(C)C1=C(O)C(=O)C1=C2[C@H](OC(C)=O)C[C@]2(C)C(=O)CC[C@@H]12)CC=C [SONOLISIB]	> 30 µM (inactive)	> 30 µM (inactive)	> 30 µM (inactive)	> 30 µM (inactive)	> 30 µM (inactive)
COc1cc(Nc2ncc(F)c(Nc3ccc4c(n3)N(COP(=O)(O)O)C(=O)C(C)(C)O4)n2)cc(OC)c1OC [FOSTAMATINIB]	> 30 µM (inactive)	> 30 µM (inactive)	> 30 µM (inactive)	> 30 µM (inactive)	> 30 µM (inactive)
C[C@@H]1COC(Nc2ccc3ncnc(Nc4ccc(OCc5nccs5)c(Cl)c4)c3c2)=N1 [VARLITINIB]	> 30 µM (inactive)	> 30 µM (inactive)	> 30 µM (inactive)	> 30 µM (inactive)	> 30 µM (inactive)
COCCN1CCN(Cc2ccc(-c3n[nH]c4c3C(=O)c3c(NC(=O)NN5CCOCC5)cccc3-4)cc2)CC1 [RGB-286638]	> 30 µM (inactive)	0.318 µM (active)	> 30 µM (inactive)	0.004 µM (active)	> 30 µM (inactive)
CNC(=O)c1ccc(Nc2ncc(C(F)(F)F)c(NCc3nccnc3N(C)S(C)(=O)=O)n2)cc1 [DEFACTINIB]	> 30 µM (inactive)	1.41 µM (active)	> 30 µM (inactive)	> 30 µM (inactive)	> 30 µM (inactive)
C=CC(=O)Nc1cccc(Nc2nc(Nc3ccc(N4CCN(C(C)=O)CC4)cc3OC)ncc2C(F)(F)F)c1 [ROCILETINIB]	> 30 µM (inactive)	> 30 µM (inactive)	> 30 µM (inactive)	0.45 µM (active)	> 30 µM (inactive)
Cc1ccc(C(=O)Nc2ccc(Oc3cc4cnn(C)c4cc3-c3cn[nH]c3)c(F)c2)c(=O)n1-c1ccc(F)cc1 [MERESTINIB]	> 30 µM (inactive)	> 30 µM (inactive)	> 30 µM (inactive)	> 30 µM (inactive)	> 30 µM (inactive)
O=C(O)c1ccc2c(c1)nc(Nc1cccc(Cl)c1)c1ccncc12 [SILMITASERTIB]	> 30 µM (inactive)	0.514 µM (active)	> 30 µM (inactive)	5.16 µM (active)	> 30 µM (inactive)
Cc1c(Cn2c(C)nc3c(C(=O)O)cc(N4CCOCC4)cc32)cccc1C(F)(F)F [GSK-2636771]	> 30 µM (inactive)	> 30 µM (inactive)	> 30 µM (inactive)	> 30 µM (inactive)	> 30 µM (inactive)
